This passage reports IC50 results from patent US20090018166A1, “New Pyridine Analogues X 161” (ASTRAZENECA AB, priority 2007, published 2009).

As usually defined, the IC50 is the point on the concentration scale where inhibition reaches its midpoint.

Like-named read-outs stand apart in the source and are kept apart here.

The assay addresses T1, P2Y12 receptor (Homo sapiens, UniProt Q9H244).
T1 construct: expressed in transfected cells; host or cells: CHO cells (membranes)
Nature of the assay: Functional inhibition of 2-Me-S-ADP induced P2Y12 signalling (35S-GTPγS binding, membranes from P2Y12 transfected CHO-cells). The format is biochemical. Here is the method:
Functional inhibition of- the P2Y12 receptor can be measured by in vitro assays using cell membranes from P2Y12 transfected CHO-cells, the methodology is indicated below.
Functional inhibition of 2-Me-S-ADP induced P2Y12 signalling: 5 μg of membranes were diluted in 200 μl of 200 mM NaCl, 1 mM MgCl2, 50 mM HEPES (pH 7.4), 0.01% BSA, 30 μg/ml saponin and 10 μM GDP. To this was added an EC80 concentration of agonist (2-methyl-thio-adenosine diphosphate), the required concentration of test compound and 0.1 μCi ^35S-GTPγS. The reaction was allowed to proceed at 30° C. for 45 min. Samples were then transferred on to GF/B filters using a cell harvester and washed with wash buffer (50 mM Tris (pH 7.4), 5 mM MgCl2, 50 mM NaCl). Filters were then covered with scintilant and counted for the amount of ^35S-GTPγS retained by the filter. Maximum activity was that determined in the presence of the agonist and minimum activity in the absence of the agonist following subtraction of the value determined for non-specific activity. The effect of compounds at various concentrations was plotted according to the equation
y=A+((B−A)/(1+((C/x)̂D)))
and IC50 estimated where A is the bottom plateau of the curve i.e. the final minimum y value B is the top of the plateau of the curve i.e. the final maximum y value C is the x value at the middle of the curve. This represents the log EC50 value when A+B=100 D is the slope factor. x is the original known x values. Y is the original known y values.

Where [1] appears, read: 35S-GTPγS, EC80 of 2-methyl-thio-adenosine diphosphate, P2Y12 CHO membranes, value given in each example, read-out: GTPγS(IC50 μM).
Setting [2] is: functional inhibition of 2-Me-S-ADP induced P2Y12 signalling assay, EC80 of agonist, summary table in Pharmacological Data, read-out: IC50.

T1 sequence (Q9H244 whole entry): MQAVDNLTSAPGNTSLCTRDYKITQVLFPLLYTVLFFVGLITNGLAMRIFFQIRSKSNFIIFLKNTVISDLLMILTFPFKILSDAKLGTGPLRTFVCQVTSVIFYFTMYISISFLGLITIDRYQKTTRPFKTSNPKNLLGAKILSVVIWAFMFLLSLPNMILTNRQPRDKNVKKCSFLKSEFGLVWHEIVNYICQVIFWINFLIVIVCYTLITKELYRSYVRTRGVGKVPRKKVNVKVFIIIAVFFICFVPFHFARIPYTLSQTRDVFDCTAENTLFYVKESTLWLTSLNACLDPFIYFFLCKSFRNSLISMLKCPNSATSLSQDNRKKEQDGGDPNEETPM

For “1-{3-chloro-6-[(2-oxopyrrolidin-1-yl)methyl]-5-pentanoylpyridin-2-yl}-N-[(2,4-difluorobenzyl)sulfonyl]-N-methylpiperidine-4-carboxamide [Example 71]”, the IC50 under setting [1] was found to be 0.903 µM.
Consider `CC(=O)c1cc(C#N)c(N2CCC(C(=O)NS(=O)(=O)Cc3ccccc3)CC2)nc1CN1CCCC1=O` [Example 1, 1-{5-Acetyl-3-cyano-6-[(2-oxopyrrolidin-1-yl)methyl]pyridin-2-yl}-N-(benzylsulfonyl)piperidine-4-carboxamide], for which, under setting [1], the IC50 is 0.283 µM.
The same measure, in the same setting: as for `CCCC(=O)c1cc(C#N)c(N2CCC(C(=O)NS(=O)(=O)Cc3ccccc3)CC2)nc1CN1CCCC1=O` [Example 2, N-(Benzylsulfonyl)-1-{5-butyryl-3-cyano-6-[(2-oxopyrrolidin-1-yl)methyl]pyridin-2-yl}piperidine-4-carboxamide], the figure is 0.022 µM; as for `CC(=O)c1cc(C#N)c(N2CCC(C(=O)NS(=O)(=O)Cc3ccccc3)CC2)nc1CN1CCCCC1=O` [Example 3, 1-{5-Acetyl-3-cyano-6-[(2-oxopiperidin-1-yl)methyl]pyridin-2-yl}-N-(benzylsulfonyl)piperidine-4-carboxamide], 1.65 µM.
Regarding `CCCC(=O)c1cc(C#N)c(N2CCC(C(=O)NS(=O)(=O)Cc3ccc(C)cc3)CC2)nc1CN1CCCCC1=O` [Example 4, 1-{5-Butyryl-3-cyano-6-[(2-oxopiperidin-1-yl)methyl]pyridin-2-yl}-N-[(4-methylbenzyl)sulfonyl]piperidine-4-carboxamide], the IC50 is, setting by setting: under setting [1], 0.021 µM; under setting [2], 0.28 µM.
As for `CCCC(=O)c1cc(C#N)c(N2CCC(C(=O)NS(=O)(=O)Cc3ccc(C)cc3)CC2)nc1CN1CCCC1=O` [Example 5, 1-{5-butyryl-3-cyano-6-[(2-oxopyrrolidin-1-yl)methyl]pyridin-2-yl}-N-[(4-methylbenzyl)sulfonyl]piperidine-4-carboxamide], the IC50 under setting [1] was determined as 0.009 µM.
For `CCCC(=O)c1cc(C#N)c(N2CCC(C(=O)NS(=O)(=O)Cc3ccc(F)cc3F)CC2)nc1CN1CCCC1=O` [Example 6, 1-{5-butyryl-3-cyano-6-[(2-oxopyrrolidin-1-yl)methyl]pyridin-2-yl}-N-[(2,4-difluorobenzyl)sulfonyl]piperidine-4-carboxamide], under setting [1], the IC50 was 0.0099 µM.
Still for that read-out and setting: with `CCCC(=O)c1cc(C#N)c(N2CCC(C(=O)NS(=O)(=O)CC3CCCC3)CC2)nc1CN1CCCC1=O` [Example 7, 1-{5-Butyryl-3-cyano-6-[(2-oxopyrrolidin-1-yl)methyl]pyridin-2-yl}-N-[(cyclopentylmethyl)sulfonyl]piperidine-4-carboxamide] the figure was 0.028 µM.
For the molecule `N#Cc1cc(C(=O)C2CC2)c(CN2CCCC2=O)nc1N1CCC(C(=O)NS(=O)(=O)Cc2ccccc2)CC1` [Example 8, N-(benzylsulfonyl)-1-{3-cyano-5-(cyclopropylcarbonyl)-6-[(2-oxopyrrolidin-1-yl)methyl]pyridin-2-yl}piperidine-4-carboxamide], the IC50 under setting [1] worked out at 0.032 µM.
Turning to `N#Cc1cc(C(=O)C2CC2)c(CN2CCCC2=O)nc1N1CCC(C(=O)NS(=O)(=O)CC2CCCC2)CC1` [Example 9, 1-{3-Cyano-5-(cyclopropylcarbonyl)-6-[(2-oxopyrrolidin-1-yl)methyl]pyridin-2-yl}-N-[(cyclopentylmethyl)sulfonyl]piperidine-4-carboxamide], the IC50 under setting [1] turned out to be 0.058 µM.
Same read-out and setting: with `CCC(=O)c1cc(C#N)c(N2CCC(C(=O)NS(=O)(=O)Cc3ccccc3)CC2)nc1CN1CCCC1=O` [Example 10, N-(benzylsulfonyl)-1-{3-cyano-6-[(2-oxopyrrolidin-1-yl)methyl]-5-propionylpyridin-2-yl}piperidine-4-carboxamide] the figure was 0.098 µM; with `CCC(=O)c1cc(C#N)c(N2CCC(C(=O)NS(=O)(=O)Cc3ccc(C)cc3)CC2)nc1CN1CCCC1=O` [Example 11, 1-{3-cyano-6-[(2-oxopyrrolidin-1-yl)methyl]-5-propionylpyridin-2-yl}-N-[(4-methylbenzyl)sulfonyl]piperidine-4-carboxamide], 0.037 µM.
For the molecule `CCC(=O)c1cc(C#N)c(N2CCC(C(=O)NS(=O)(=O)CC3CCCC3)CC2)nc1CN1CCCC1=O` [Example 12, 1-{3-Cyano-6-[(2-oxopyrrolidin-1-yl)methyl]-5-propionylpyridin-2-yl}-N-[(cyclopentylmethyl)sulfonyl]piperidine-4-carboxamide], the IC50 by setting is: under setting [1], 0.328 µM; under setting [2], 0.13 µM.
As for `CN(c1ccccc1)S(=O)(=O)NC(=O)C1CCN(c2nc(CN3CCCCC3=O)c(C(=O)C3CC3)cc2C#N)CC1` [Example 13, 1-{3-Cyano-5-(cyclopropylcarbonyl)-6-[(2-oxopiperidin-1-yl)methyl]pyridin-2-yl}-N-{[methyl(phenyl)amino]sulfonyl}piperidine-4-carboxamide], under setting [1], the IC50 was determined as 0.153 µM.
Still for that read-out and setting: as for `N#Cc1cc(C(=O)C2CC2)c(CN2CCCCC2=O)nc1N1CCC(C(=O)NS(=O)(=O)CC2CCCC2)CC1` [Example 14, 1-{3-Cyano-5-(cyclopropylcarbonyl)-6-[(2-oxopiperidin-1-yl)methyl]pyridin-2-yl}-N-[(cyclopentylmethyl)sulfonyl]piperidine-4-carboxamide], the figure is 0.461 µM; as for `CC(C)C(=O)c1cc(C#N)c(N2CCC(C(=O)NS(=O)(=O)Cc3ccccc3)CC2)nc1CN1CCCC1=O` [Example 15, N-(Benzylsulfonyl)-1-{3-cyano-5-isobutyryl-6-[(2-oxopyrrolidin-1-yl)methyl]pyridin-2-yl}piperidine-4-carboxamide], 0.106 µM; as for `CC(C)C(=O)c1cc(C#N)c(N2CCC(C(=O)NS(=O)(=O)CC3CCCC3)CC2)nc1CN1CCCC1=O` [Example 16, 1-{3-Cyano-5-isobutyryl-6-[(2-oxopyrrolidin-1-yl)methyl]pyridin-2-yl}-N-[(cyclopentylmethyl)sulfonyl]piperidine-4-carboxamide], 0.396 µM.
The same measure, in the same setting: as for `CCCCC(=O)c1cc(C#N)c(N2CCC(C(=O)NS(=O)(=O)CC3CCCC3)CC2)nc1CN1CCCC1=O` [Example 17, 1-{3-Cyano-6-[(2-oxopyrrolidin-1-yl)methyl]-5-pentanoylpyridin-2-yl}-N-[(cyclopentylmethyl)sulfonyl]piperidine-4-carboxamide], the figure is 0.029 µM.
The same measure, in the same setting: as for `CCCCC(=O)c1cc(C#N)c(N2CCC(C(=O)NS(=O)(=O)Cc3ccccc3)CC2)nc1CN1CCCC1=O` [Example 18, N-(Benzylsulfonyl)-1-{3-cyano-6-[(2-oxopyrrolidin-1-yl)methyl]-5-pentanoylpyridin-2-yl}piperidine-4-carboxamide], the figure is 0.013 µM.
Regarding `CCCCC(=O)c1cc(C#N)c(N2CCC(C(=O)NS(=O)(=O)Cc3ccc(C)cc3)CC2)nc1CN1CCCC1=O` [Example 19, 1-{3-Cyano-6-[(2-oxopyrrolidin-1-yl)methyl]-5-pentanoylpyridin-2-yl}-N-[(4-methylbenzyl)sulfonyl]piperidine-4-carboxamide], the concentration for half-maximal inhibition (IC50) under setting [1] was determined as 0.0086 µM.
The same measure, in the same setting: with `CCCCC(=O)c1cc(C#N)c(N2CCC(C(=O)NS(=O)(=O)Cc3ccc(F)cc3F)CC2)nc1CN1CCCC1=O` [Example 20, 1-{3-Cyano-6-[(2-oxopyrrolidin-1-yl)methyl]-5-pentanoylpyridin-2-yl}-N-[(2,4-difluorobenzyl)sulfonyl]piperidine-4-carboxamide] the figure was 0.013 µM; with `CCCCC(=O)c1cc(C#N)c(N2CCC(C(=O)NS(=O)(=O)N(C)c3ccc(F)cc3)CC2)nc1CN1CCCC1=O` [Example 21, 1-{3-Cyano-6-[(2-oxopyrrolidin-1-yl)methyl]-5-pentanoylpyridin-2-yl}-N-{[(4-fluorophenyl)(methyl)amino]sulfonyl}piperidine-4-carboxamide], 0.023 µM; with `CCCCC(=O)c1cc(C#N)c(N2CCC(C(=O)NS(=O)(=O)N(C)c3ccccc3)CC2)nc1CN1CCCC1=O` [Example 22, 1-{3-Cyano-6-[(2-oxopyrrolidin-1-yl)methyl]-5-pentanoylpyridin-2-yl}-N-{[methyl(phenyl)amino]sulfonyl}piperidine-4-carboxamide], 0.017 µM.
Same read-out and setting: as for `CN(c1ccccc1)S(=O)(=O)NC(=O)C1CCN(c2nc(CN3CCCC3=O)c(C(=O)C3CC3)cc2C#N)CC1` [Example 23, 1-{3-Cyano-5-(cyclopropylcarbonyl)-6-[(2-oxopyrrolidin-1-yl)methyl]pyridin-2-yl}-N-{[methyl(phenyl)amino]sulfonyl}piperidine-4-carboxamide], the figure is 0.042 µM; as for `N#Cc1cc(C(=O)C2CC2)c(CN2CCCC2=O)nc1N1CCC(C(=O)NS(=O)(=O)CC2CCC2)CC1` [Example 24, 1-{3-Cyano-5-(cyclopropylcarbonyl)-6-[(2-oxopyrrolidin-1-yl)methyl]pyridin-2-yl}-N-[(cyclobutylmethyl)sulfonyl]piperidine-4-carboxamide], 0.428 µM.
